In patent publication US5373012A, “5-fluoro-2,4,6-pyrimidinetriamine compounds” (The Upjohn Company, priority 1993, dated 1994):
Values joined by “and” are separate entries in the source; they are usually repeats but may differ in a detail not shown here. Identical values can stand only once.

How the values were obtained:
[1] = transdermal absorption: urinary excretion of drug after topical application in rats; format: in vivo; settings: for AVERAGE of total micrograms excreted: average of three rats, urine over 24 hours on fifth day; for AVERAGE of total micrograms excreted / TOTAL MICROGRAMS EXCRETED: 50/30/20 propylene glycol/ethanol/water; for TOTAL MICROGRAMS EXCRETED: individual rats 1-3, urine over 24 hours on fifth day after four days topical treatment
Description: The ability of the 5-fluoro minoxidil to be absorbed in transdermal applications was measured versus minoxidil as a control. Three rats were treated with each compound for four days and on the fifth day their urine was collected over a 24 hour period. The urine was then analyzed for drug levels and converted to micrograms urine excreted per 24 hours. The compounds were administered in a 50/30/20 propylene glycol/ethanol/water vehicle.

[2] = hair growth in stumptail macaque monkeys (balding scalp, hair weight change from baseline); format: in vivo, stumptail macaque (Macaca specoisa) monkeys; settings: Table III; topical 100 mM in 50% propylene glycol/50% ethanol, sixteen weeks; vehicle -1.8 ± 2.7; mean±SEM
Description: The 5-fluoro minoxidil compounds were evaluated in the macaque monkey models and show significant hair growth results.
Thirteen stumptail macaque (Macaca specoisa) monkeys (mixed sexes) were assigned to vehicle control and drug treated groups on the basis of baseline hair weight data.
1. Topical 50:50 vehicle (N=7)
The control consisted of 50% propylene glycol, 50% ethanol. The experimental composition consisted of a 100 mM concentration of topical 5-fluoro minoxidil formulated in the control vehicle. Immediately prior to the dosing phase of the study, hair was removed from a 1 inch square area (identified by four tattoos) in the center of the balding scalp. This hair collection was the baseline hair growth determination prior to the beginning of treatment. Approximately 250 μL of vehicle or 100 mM 5-fluoro minoxidil (prepared in vehicle)were topically administered to the tattooed area of the scalp. The monkeys were dosed once per day, five days per week for sixteen weeks.
At four week intervals throughout the dosing phase of the study, each monkey was shaved and the hair was collected and weighed. The body weight data (at baseline and during assay) were analyzed by the nonparametric Wilcoxon rank-sum test. Differences were significant at p<0.05. The hair weight data (mean±SEM) at each 4 week collection for vehicle and treatment groups were expressed as the change from baseline. […]

[3] = in vivo hair growth assay using rats (shaved hair weighed every seven days); settings: for Hair Growth: mean
Description: The 5-fluoro minoxidil compounds were evaluated for hair growth in an in vivo hair growth assay using rats. Each rat is dosed with vehicle and drug, 200-500 microliters per day, 5 days per week. Every seven days the treated areas are shaved and the hair removed is weighed to compare normal untreated hair growth to the drug treated hair growth.

[4] = cardiovascular effects in vivo in conscious beagle dogs (mean arterial pressure, heart rate); settings: 1.5 mg/kg; N=1; FIG. 2; 5-fluoro minoxidil compared to minoxidil
Description: The 5-fluoro minoxidil compounds were evaluated for cardiovascular effects in an in vivo test with beagle dogs. This test procedure is described in Humprey SJ, Zins GR, Whole Body and Regional Hemodynamic Effects of Minoxidil in the Conscious Dog, J. Card, Pharm. 6:979-88 (1984) and in Humprey, S.J., Zins, G.R., The Effects of Indomethacin on the Systemic and Regional Vasodilator Responses to Minoxidil in the Conscious Dog, Chem. Path. & Pharm. 59:1 3-20 (1988). Experiments were conducted using a radiolabeled tracer microspheres technique, Wagner NH et al., Studies of the Circulation with Radioactive Microspheres, Invest. Radiol. 4:374-86 (1969), with conscious beagle dogs. The results of a rapid evaluation (N=1) of the 5-fluoro minoxidil compound compared to minoxidil are presented in FIG. 1 change in Mean Arterial Pressure versus Time at the doses indicated and FIG. 2 Changes in Heart Rate versus Time at the doses indicated.

SMILES | AVERAGE of total micrograms excreted [1] [MICROGRAMS] | transdermal transport properties versus unsubstituted minoxidil ([1]; in words) | TOTAL MICROGRAMS EXCRETED [1] | absorption versus minoxidil ([1]; transdermal, rats, in words) | Hair Growth (cumulative change in hair weight from baseline) [2] | Hair Growth ([3]; Table I, 1 mM, topical, vehicle 50/30/20 propylene glycol/ethanol/water, vehicle +0.527 ± 0.081) | Hair Growth ([3]; Table I, 5 mM, topical, vehicle 50/30/20 propylene glycol/ethanol/water, vehicle +0.527 ± 0.081) | Hair Growth ([3]; Table I, 25 mM, topical, vehicle 50/30/20 propylene glycol/ethanol/water, vehicle +0.527 ± 0.081) | Hair Growth ([3]; Table II, 25 mM 5-fluoro-minoxidil in 50/30/20 propylene glycol/ethanol/water, vehicle +0.528) | change in Heart Rate [4] | statistical difference (p) between the two agents in level of hair growth stimulation ([3]; 100 mM minoxidil vs 25 mM 5-fluoro-minoxidil) | Hair Growth ([3]; Table II, 100 mM minoxidil in 100% PG (propylene glycol), 100% PG alone +0.487)
Nc1nc(N2CCCCC2)c(F)c(N)[n+]1[O-] [5-fluoro minoxidil, 5-Fluoro-6-piperidinyl-2,4-pyrimidinediamine, 3-Oxide] | 1427 | superior transdermal transport properties over unsubstituted minoxidil | 1229 MICROGRAMS and 1132 MICROGRAMS and 1921 MICROGRAMS | superior absorption over the minoxidil control | +14.8 ± 3.1 mg | +0.609 ± 0.083 mg/in^2 /day | +0.760 ± 0.153 mg/in^2 /day | +0.952 ± 0.149 mg/in^2 /day | +0.938 mg/in^2 /day | – | – | –
Nc1cc(N2CCCCC2)nc(N)[n+]1[O-] [Minoxidil, reference compound] | 454 | – | 354 MICROGRAMS and 358 MICROGRAMS and 651 MICROGRAMS | – | – | – | – | – | – | increases in heart rate | no statistical difference | +1.065 mg/in^2 /day
